Assay results reported in patent US10011615B2, “Heterobicyclo-substituted [1,2,4]triazolo[1,5-c]quinazolin-5-amine compounds with A2A anatagonist properties” (Merck Sharp & Dohme Corp., priority 2012, dated 2018).

Target: T1, human A2a receptor (Homo sapiens, UniProt P29274)
T1 construct: purchased Perkin-Elmer RBHA2AM400UA; host or cells: HEK293 cell membranes
Experiment: A2a receptor competition binding assay using Scintillation Proximity technology
Details: membranes from HEK293 cells expressing human A2a receptor; 0.5 nM tritiated radioligand; SPA beads; 1 h room temperature
Procedure: Binding affinities of compounds of the invention for the human A2a receptor were determined in a competition binding assay using Scintillation Proximity technology. Thus, 0.3 μg of membranes from HEK293 cells expressing the human A2a receptor were incubated with a compound of the invention at concentrations ranging from 3000 nM to 0.15 nM in a reaction mixture containing also 0.5 nM of a tritiated form of 5-amino-7-[2-phenethyl]-2-(furan-2-yl)-7H-pyrazolo[4,3-e][1,2,4]triazolo[1,5-c]pyrimidine (the tritiated compound) and 100 μg of wheat germ agglutin-coated yttrium silicate SPA beads for one hour at room temperature with agitation. The beads were then allowed to settle to the bottom of the wells for 1 hr, after which the membrane-associated radioactivity was determined by scintillation counting in a TopCount microplate reader. Ki values were determined using the Cheng-Prusoff equation.
Summary of Materials and Methods Used in A2a Activity Determination:
HEK293 cells expressing the human, rat, dog or monkey adenosine 2a receptor (Purchased from Perkin-Elmer # RBHA2AM400UA).
The Tritiated compound was prepared in-house by MRL Radiochemistry according to published methods.
Wheat germ agglutinin-coated yttrium silicate SPA beads (GE Healthcare#RPNQ0023). Dilute to 25 mg/ml in assay buffer.
Assay Buffer was prepared in house: Dulbecco's calcium and magnesium free phosphate buffered saline+10 mM MgCl2
Adenosine deaminase from calf intestine, 10 mg/2 ml (Roche) 10 102 105 001).
A2a antagonist standard (9-chloro-1-(2-furanyl)-[1,2,4]triazolo1,5-c]quinazolin-5-amine from Tocris Bioscience)
Make eight 1:3 serial dilutions in 100% DMSO from a 3 mM compound stock
Transfer 50 nl of compound into a 384-well OptiPlate (Perkin Elmer).
Typically, final concentrations of compound used in the assay ranged from 3000 nM to 0.152 nM.
Dilute a solution of the Tritiated compound to 1.25 nM in assay buffer. This is a 2.5× solution. The final concentration in the assay is 0.5 nM. Calculate the concentration by counting two 5 μl aliquots.
Use 0.25 ug of membrane/well. Dilute membranes to 9.7 μg/ml in assay buffer. Treat with 20 ug/ml adenosine deaminase (ADA) for 15 minutes at room temperature to degrade endogenous adenosine.
Use 100 μg/well wheat germ agglutinin-coated yttrium silicate SPA beads.
Mix ADA-treated membranes and SPA beads together for 30 min prior to assay.
To the Perkin-Elmer Optiplate-384 containing the compound titration add 20 μl of 2.5× solution of the Tritiated compound and 30 μl of the membrane-bead mixture. Incubate for one hour at room temperature with agitation.
Include total binding (assay buffer+1% DMSO) and non-specific binding (CGS15943, 1 μM) wells.
Allow the beads to settle for one hour.
A curve fitting program (i.e., Prism, Activity Base, Chemcart) is used to determine the EC50. The Ki value is calculated using the Cheng-Prusoff equation: K i=EC50/(1+(radioligand concentration/Kd)).

T1 sequence (P29274 whole entry): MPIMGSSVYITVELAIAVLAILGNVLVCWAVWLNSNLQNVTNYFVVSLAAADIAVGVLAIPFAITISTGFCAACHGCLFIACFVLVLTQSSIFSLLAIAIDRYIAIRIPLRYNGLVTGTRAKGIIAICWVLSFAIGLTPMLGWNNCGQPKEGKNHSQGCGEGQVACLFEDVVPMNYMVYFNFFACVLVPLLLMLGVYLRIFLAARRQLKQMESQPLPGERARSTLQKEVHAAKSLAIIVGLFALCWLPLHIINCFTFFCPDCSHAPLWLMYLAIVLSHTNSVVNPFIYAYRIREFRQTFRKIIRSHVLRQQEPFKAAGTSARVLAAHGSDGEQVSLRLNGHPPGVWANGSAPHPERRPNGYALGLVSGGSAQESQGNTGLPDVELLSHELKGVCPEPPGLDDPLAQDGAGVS

| SMILES | EC50 [nM] |
| --- | --- |
| COc1cccc2c1nc(N)n1nc(CN3CCCc4ncccc43)nc21 [Ex-133, 2-((3,4-dihydro-1,5-naphthyridin-1(2H)-yl)methyl)-7-methoxy-[1,2,4]triazolo[1,5-c]quinazolin-5-amine] | 27.8 |
| COc1cccc2c1nc(N)n1nc(CN3CCn4c(nnc4OC)C3)nc21 [Ex-144, 7-methoxy-2-((3-methoxy-5,6-dihydro[1,2,4]triazolo[4,3-a]pyrazin-7(8H)-yl)methyl)[1,2,4]triazolo[1,5-c]quinazolin-5-amine] | 149 |
| Nc1nc2cc(F)ccc2c2nc(CCN3CCc4ccccc4C3)nn12 [Ex-93] | 37.5 |
| COc1cccc2c1nc(N)n1nc(CCN3CCn4c(Br)nnc4C3)nc21 [Ex-3, 2-(2-(3-bromo-5,6-dihydro-[1,2,4]triazolo[4,3-a]pyrazin-7(8H)-yl)ethyl)-7-methoxy-[1,2,4]triazolo[1,5-c]quinazolin-5-amine] | 3.4 |
| COc1cccc2c1nc(N)n1nc(CCN3CCc4nc(C)oc4C3C)nc21 (stereo not drawn) [Ex-236, 2-(2-(2,4-dimethyl-6,7-dihydrooxazolo[5,4-c]pyridin-5(4H)-yl)ethyl)-7-methoxy-[1,2,4]triazolo[1,5-c]quinazolin-5-amine] | 1.4 |
| COc1cccc2c1nc(N)n1nc(CCN3CCc4ncsc4C3)nc21 [Ex-56, 2-(2-(6,7-dihydrothiazolo[5,4-c]pyridin-5(4H)-yl)ethyl)-7-methoxy-[1,2,4]triazolo[1,5-c]quinazolin-5-amine] | 3.4 |
| COc1cccc2c1nc(N)n1nc(CCN3Cc4cncnc4C3)nc21 [Ex-19, 2-(2-(5H-pyrrolo[3,4-d]pyrimidin-6(7H)-yl)ethyl)-7-methoxy-[1,2,4]triazolo[1,5-c]quinazolin-5-amine] | 7.6 |
| CCc1nnc2n1CCN(CCc1nc3c4ccc(F)cc4nc(N)n3n1)C2 [Ex-95] | 16.5 |
| COc1cccc2c1nc(N)n1nc(CN3Cc4ccc(Cl)nc4C3)nc21 [Ex-137] | 16.1 |
| COc1cccc2c1nc(N)n1nc(CN3CCc4cccnc4C3)nc21 [Ex-123, 2-((5,6-dihydro-1,7-naphthyridin-7(8H)-yl)methyl)-7-methoxy-[1,2,4]triazolo[1,5-c]quinazolin-5-amine] | 5.6 |
| Nc1nc2c(F)cccc2c2nc(CCN3CCc4ccccc4C3)nn12 [Ex-87] | 19.1 |
| COc1cccc2c1nc(N)n1nc(CCN3CCCc4c3c(C(F)(F)F)nn4C)nc21 [Ex-43, 7-methoxy-2-(2-(1-methyl-3-(trifluoromethyl)-6,7-dihydro-1H-pyrazolo[4,3-b]pyridin-4(5H)-yl)ethyl)-[1,2,4]triazolo[1,5-c]quinazolin-5-amine] | 8.4 |
| COc1cccc2c1nc(N)n1nc(CCN3CCc4c(cnn4C4CC4)C3)nc21 [Ex-7, 2-(2-(1-cyclopropyl-6,7-dihydro-1H-pyrazolo[4,3-c]pyridin-5(4H)-yl)ethyl)-7-methoxy-[1,2,4]triazolo[1,5-c]iquinazolin-5-amine] | 1.4 |
| COc1cccc2c1nc(N)n1nc(CN3Cc4cccnc4C3)nc21 [Ex-118, 2-((5H-pyrrolo[3,4-b]pyridin-6(7H)-yl)methyl)-7-methoxy-[1,2,4]triazolo[1,5-c]quinazolin-5-amine] | 5.4 |
| CC[C@H](Cc1nc2c3cccc(OC)c3nc(N)n2n1)N1Cc2cccnc2C1 [Ex-112] | 4.9 |
| COc1cccc2c1nc(N)n1nc(CN3CCn4c(Br)nnc4C3)nc21 [Ex-140, 2-((3-bromo-5,6-dihydro-[1,2,4]triazolo[4,3-a]pyrazin-7(8H)-yl)methyl)-7-methoxy-[1,2,4]triazolo[1,5-c]quinazolin-5-amine] | 104 |
| COc1cccc2c1nc(N)n1nc(CCN3CCc4noc(C(F)(F)F)c4C3)nc21 [Ex-9, 7-methoxy-2-(2-(3-(trifluoromethyl)-6,7-dihydroisoxazolo[4,3-c]pyridin-5(4H)-yl)ethyl)-[1,2,4]triazolo[1,5-c]quinazolin-5-amine] | 2.1 |

Now from value to molecule:

| EC50 [nM] | SMILES |
| --- | --- |
| 9.6 | COc1cccc2c1nc(N)n1nc(CCN3CCCn4nccc43)nc21 [Ex-59, 2-(2-(6,7-dihydropyrazolo[1,5-a]pyrimidin-4(5H)-yl)ethyl)-7-methoxy-[1,2,4]triazolo[1,5-c]quinazolin-5-amine] |
| 27.8 | COc1cccc2c1nc(N)n1nc(CN3Cc4cnc(C(F)(F)F)nc4C3)nc21 [Ex-152, 7-methoxy-2-((2-(trifluoromethyl)-5H-pyrrolo[3,4-d]pyrimidin-6(7H)-yl)methyl)-[1,2,4]triazolo[1,5-c]quinazolin-5-amine] |
| 4.3 | CCN(CC)c1ccnc2c1CCN(CCc1nc3c4cccc(OC)c4nc(N)n3n1)C2 [Ex-74] |
| 42.3 | Nc1nc2c(F)cccc2c2nc(CCN3Cc4cnc(C(F)(F)F)nc4C3)nn12 [Ex-88] |
| 47.7 | Nc1nc2c(F)cccc2c2nc(CCN3Cc4cccc(F)c4C3)nn12 [Ex-89] |
| 3 | COc1cccc2c1nc(N)n1nc(C[C@@H](C)N3CCc4nc(C)oc4C3)nc21 [Ex-211, (R)-7-methoxy-2-(2-(2-methyl-6,7-dihydrooxazolo[5,4-c]pyridin-5(4H)-yl)propyl)-[1,2,4]triazolo[1,5-c]quinazolin-5-amine] |
| 6.1 | COc1cccc2c1nc(N)n1nc(C[C@H](C)N3CCc4nc(C)oc4C3)nc21 [Ex-212, (S)-7-methoxy-2-(2-(2-methyl-6,7-dihydrooxazolo[5,4-c]pyridin-5(4H)-yl)propyl)-[1,2,4]triazolo[1,5-c]quinazolin-5-amine] |
| 6.4 | COc1cccc2c1nc(N)n1nc(CCN3CCc4[nH]nc(C)c4C3)nc21 [Ex-37, 7-methoxy-2-(2-(3-methyl-6,7-dihydro-1H-pyrazolo[4,3-c]pyridin-5(4H)-yl)ethyl)-[1,2,4]triazolo[1,5-c]quinazolin-5-amine] |
| 6.7 | CCc1nnc2n1CCN(CCc1nc3c4cccc(F)c4nc(N)n3n1)C2 [Ex-86] |
| 21.7 | Cc1cccc2c1nc(N)n1nc(CN3CCc4cccnc4C3)nc21 [Ex-201] |
| 7.9 | COc1cccc2c1nc(N)n1nc(CN3CCCc4ccccc4C3)nc21 [Ex-132, 2-((4,5-dihydro-1H-benzo[c]azepin-2(3H)-yl)methyl)-7-methoxy-[1,2,4]triazolo[1,5-c]quinazolin-5-amine] |
| 74.4 | COc1cccc2c1nc(N)n1nc(CN3CCn4c(nnc4C(=O)NC(C)(C)C)C3)nc21 [Ex-143, 7-((5-amino-7-methoxy-[1,2,4]triazolo[1,5-c]quinazolin-2-yl)methyl)-N-tert-butyl-5,6,7,8-tetrahydro-[1,2,4]triazolo[4,3-a]pyrazine-3-carboxamide] |
| 2.8 | COc1cccc2c1nc(N)n1nc(CN3CCc4ccc(-c5cnn(C)c5C(F)(F)F)cc4C3)nc21 [Ex-182, 7-methoxy-2-((7-(1-methyl-5-(trifluoromethyl)-1H-pyrazol-4-yl)-3,4-dihydroisoquinolin-2(1H)-yl)methyl)-[1,2,4]triazolo[1,5-c]quinazolin-5-amine] |
| 11.9 | CCC(Cc1nc2c3cccc(OC)c3nc(N)n2n1)N1Cc2cccnc2C1 (stereo not drawn) [Ex-111] |
| 1.4 | COc1cccc2c1nc(N)n1nc(CCN3CCc4c(c(C(F)(F)F)nn4C)C3)nc21 [Ex-32, 7-methoxy-2-(2-(1-methyl-3-(trifluoromethyl)-677-dihydro-1H-pyrazolo[4,3-c]pyridin-5(4H)-yl)ethyl)-[1,2,4]triazolo[1,5-c]quinazolin-5-amine] |
| 29 | COc1cccc2c1nc(N)n1nc(C[C@@H](C)N3CCc4oc(C)nc4C3)nc21 [Ex-214, (R)-7-methoxy-2-(2-(2-methyl-6,7-dihydrooxazolo[4,5-c]pyridin-5(4H)-yl)propyl)-[1,2,4]triazolo[1,5-c]quinazolin-5-amine] |
| 11.8 | COc1cccc2c1nc(N)n1nc(CN3CCCc4ccncc43)nc21 [Ex-135, 2-((3,4-dihydro-1,7-naphthyridin-1(2H)-yl)methyl)-7-methoxy-[1,2,4]triazolo[1,5-c]quinazolin-5-amine] |
| 1.3 | COc1cccc2c1nc(N)n1nc(CCN3CCc4nc(C5CC5)oc4C3)nc21 [Ex-31, 2-(2-(2-cyclopropyl-6,7-dihydrooxazolo[5,4-c]pyridin-5(4H)-yl)ethyl)-7-methoxy[1,2,4]triazolo[1,5-c]quinazolin-5-amine] |
| 3.7 | COc1cccc2c1nc(N)n1nc(CCN3CCc4c(N5CCC(F)(F)C5)ccnc4C3)nc21 [Ex-76] |
